In patent US9783509B2, “Six-membered C-N-linked aryl sulfide derivatives and aryl sulfoxide derivatives as pest conrol agents” (BAYER CROPSCIENCE AKTIENGESELLSCHAFT, priority 2013, dated 2017):
Like-named read-outs stand apart in the source and are kept apart here.

Key:
[1] = log P by reversed-phase HPLC analogously to OECD Guideline 117; type: physicochemical; conditions: for chromatographic logP: reversed-phase C18 HPLC column
Protocol: The log P values were determined analogously to OECD Guideline 117 (EC Directive 92/69/EEC) by HPLC (high-performance liquid chromatography) using reversed-phase columns (C 18), by the following methods:
[a] LC-MS determination in the acidic range is effected at pH 2.7 with 0.1% aqueous formic acid and acetonitrile (containing 0.1% formic acid) as eluents with a linear gradient from 10% acetonitrile to 95% acetonitrile; or with 0.025% aqueous trifluoroacetic acid and acetonitrile (containing 0.025% trifluoroacetic acid) as eluents with a linear gradient from 50% acetonitrile to 80% acetonitrile.
[b] LC-MS determination in the neutral range is effected at pH 7.8 with 0.001 molar aqueous ammonium hydrogencarbonate solution and acetonitrile as eluents; linear gradient from 10% acetonitrile to 95% acetonitrile.
Calibration is effected with solutions of a homologous series of unbranched alkan-2-ones (having 3 to 16 carbon atoms) with known log P values (log P values determined on the basis of the retention times by linear interpolation between two successive alkanones).

[2] = tested on: southern root-knot nematode (Meloidogyne incognita); assay: Meloidogyne incognita test (sand, lettuce, acetone solvent, 14 days); type: in vivo; conditions: application rate 20 ppm, after 14 days; for pest or weed control at 20 ppm: Meloidogyne incognita, 336 h, read-out: nematicidal efficacy (formation of galls)
Protocol: Meloidogyne incognita Test
Solvent: 125.0 parts by weight of acetone
To produce an appropriate active ingredient formulation, 1 part by weight of active ingredient is mixed with the stated amount of solvent and the concentrate is diluted with water to the desired concentration.
Vessels are filled with sand, active ingredient solution, an egg/larvae suspension of the southern root-knot nematode (Meloidogyne incognita) and lettuce seeds. The lettuce seeds germinate and the plants develop. The galls develop on the roots
After 14 days, the nematicidal efficacy in % is determined by the formation of galls. 100% means that no galls were found; 0% means that the number of galls on the treated plants corresponds to the untreated control.

[3] = tested on: greenhouse red spider mite (Tetranychus urticae); assay: Tetranychus urticae spray test, OP-resistant (bean leaf discs); type: in vivo; conditions: after 6 days; for pest or weed control at 500 g/ha: Tetranychus urticae, foliar, 144 h, read-out: efficacy (spider mites killed)
Protocol: Tetranychus urticae—Spray Test, OP-Resistant
Solvent: 78.0 parts by weight of acetone • • 1.5 parts by weight of dimethylformamide
Emulsifier: alkylaryl polyglycol ether
To produce an appropriate active ingredient formulation, 1 part by weight of active ingredient is dissolved using the specified parts by weight of solvent and made up with water containing an emulsifier concentration of 1000 ppm until the desired concentration is attained. To produce further test concentrations, the preparation is diluted with emulsifier-containing water.
Discs of bean leaves (Phaseolus vulgaris) infested by all stages of the greenhouse red spider mite (Tetranychus urticae) are sprayed with an active ingredient formulation of the desired concentration.
After 6 days, the efficacy in % is determined. 100% means that all the spider mites have been killed; 0% means that none of the spider mites have been killed.

[4] = [a] acidic range, pH 2.7, formic acid (or trifluoroacetic acid)/acetonitrile
[5] = [b] neutral range, pH 7.8, ammonium hydrogencarbonate/acetonitrile
[6] = pH 2.7, running text, [a] acidic range, pH 2.7, read-out: log P[a]
[7] = pH 2.7, table column, [a] acidic range, pH 2.7, formic acid (or trifluoroacetic acid)/acetonitrile, read-out: LogP[a]
[8] = pH 7.8, running text, [b] neutral range, pH 7.8, read-out: log P[b]
[9] = pH 7.8, table column, [b] neutral range, pH 7.8, ammonium hydrogencarbonate/acetonitrile, read-out: LogP[b]

Row | Structure (SMILES) | LogP[a] [1, 4] | LogP[b] [1, 5] | nematicidal efficacy (formation of galls) [2] | efficacy (spider mites killed) ([3]; application rate 500 g/ha) | also measured
1 | O=c1cnn(-c2cc([S+]([O-])CC(F)(F)F)c(Cl)cc2Cl)c(=O)[nH]1 (racemic) [compound 15] | 2.02 | 1.1 | 90% |  | 
2 | Cc1cc(F)c(-n2ncc(=O)n(C(C)C)c2=O)cc1[S+]([O-])CC(F)(F)F (racemic) [compound 30] | 2.64 | 2.58 | 100% | 100% | 
3 | Cc1cc(F)c(-n2ccc(=O)n(CC#N)c2=O)cc1[S+]([O-])CC(F)(F)F (racemic) [compound 61] | 1.72 | 1.73 | 100% | 90% | 
4 | Cc1cc(F)c(-n2ccc(=O)n(CC3CC3)c2=O)cc1[S+]([O-])CC(F)(F)F (racemic) [compound 62] | 2.29 | 2.37 | 100% | 90% | 
5 | Cc1cc(F)c(-n2ccc(=O)n(C(C)C)c2=O)cc1[S+]([O-])CC(F)(F)F (racemic) [compound 63] | 2.22 | 2.31 | 100% | 90% | 
6 | Cc1cc(F)c(-n2ccc(=O)n(Cc3ccc(F)cc3)c2=O)cc1[S+]([O-])CC(F)(F)F (racemic) [compound 64] | 2.68 | 2.77 | 100% |  | efficacy (spider mites killed) ([3]; application rate 100 g/ha): 90%
7 | C=CCn1c(=O)ccn(-c2cc([S+]([O-])CC(F)(F)F)c(C)cc2F)c1=O (racemic) [compound 65] | 2.01 | 2.08 | 100% |  | efficacy (spider mites killed) ([3]; application rate 100 g/ha): 90%
8 | Cc1cc(F)c(-n2ccc(=O)n(C)c2=O)cc1SCC(F)(F)F [Ex. No. 53, 1-{2-Fluoro-4-methyl-5-[(2,2,2-trifluoroethyl)sulphanyl]phenyl}-3-methylpyrimidine-2,4(1H,3H)-dione] |  |  |  |  | chromatographic logP [1, 6]: 2.59; chromatographic logP [1, 7]: 2.53; chromatographic logP [1, 8]: 2.53; chromatographic logP [1, 9]: 2.59; pest or weed control at 500 g/ha ([3]; application rate 500 g/ha): 90%; pest or weed control at 20 ppm [2]: 100%
9 | Cc1cc(F)c(-n2ccc(=O)[nH]c2=O)cc1[S+]([O-])CC(F)(F)F (stereo not shown) [Ex. No. 56, 1-{2-Fluoro-4-methyl-5-[(2,2,2-trifluoroethyl)sulphinyl]phenyl}pyrimidine-2,4(1H,3H)-dione] |  |  |  |  | chromatographic logP [1, 6]: 1.3; chromatographic logP [1, 7]: 1.24; chromatographic logP [1, 8]: 1.24; chromatographic logP [1, 9]: 1.3; pest or weed control at 500 g/ha ([3]; application rate 500 g/ha): 100%; pest or weed control at 20 ppm [2]: 90%
10 | Cc1ccc(-n2ccc(=O)n(C)c2=O)cc1[S+]([O-])CC(F)(F)F (stereo not shown) [Ex. No. 57, 3-Methyl-1-{4-methyl-3-[(2,2,2-trifluoroethyl)sulphinyl]phenyl}pyrimidine-2,4(1H,3H)-dione] |  |  |  |  | chromatographic logP [1, 6]: 1.5; chromatographic logP [1, 7]: 1.49; chromatographic logP [1, 8]: 1.49; chromatographic logP [1, 9]: 1.5; pest or weed control at 20 ppm [2]: 90%
11 | Cc1ccc(-n2ccc(=O)n(C)c2=O)cc1SCC(F)(F)F [Ex. No. 58, 3-Methyl-1-{4-methyl-3-[(2,2,2-trifluoroethyl)sulphanyl]phenyl}pyrimidine-2,4(1H,3H)-dione] |  |  |  |  | chromatographic logP [1, 6]: 2.48; chromatographic logP [1, 7]: 2.39; chromatographic logP [1, 8]: 2.39; chromatographic logP [1, 9]: 2.48; pest or weed control at 500 g/ha ([3]; application rate 500 g/ha): 90%; pest or weed control at 20 ppm [2]: 100%
12 | CCn1c(=O)ccn(-c2cc([S+]([O-])CC(F)(F)F)c(C)cc2F)c1=O (stereo not shown) [Ex. No. 59, 3-Ethyl-1-{2-fluoro-4-methyl-5-[(2,2,2-trifluoroethyl)sulphinyl]phenyl}pyrimidine-2,4(1H,3H)-dione] |  |  |  |  | chromatographic logP [1, 6]: 1.94; chromatographic logP [1, 7]: 1.88; chromatographic logP [1, 8]: 1.88; chromatographic logP [1, 9]: 1.94; pest or weed control at 500 g/ha ([3]; application rate 500 g/ha): 90%; pest or weed control at 20 ppm [2]: 100%
13 | CCn1c(=O)ccn(-c2cc(SCC(F)(F)F)c(C)cc2F)c1=O [Ex. No. 71, 3-Ethyl-1-{2-fluoro-4-methyl-5-[(2,2,2-trifluoroethyl)sulphanyl]phenyl}pyrimidine-2,4(1H,3H)-dione] |  |  |  |  | chromatographic logP [1, 6]: 2.93; chromatographic logP [1, 7]: 2.86; chromatographic logP [1, 8]: 2.86; chromatographic logP [1, 9]: 2.93; pest or weed control at 500 g/ha ([3]; application rate 500 g/ha): 90%; pest or weed control at 20 ppm [2]: 100%
14 | O=c1cnn(-c2cc(SCC(F)(F)F)c(Cl)cc2Cl)c(=O)[nH]1 [compound 8] | 2.72 | 1.4 | 90% |  | 
15 | O=c1cnn(-c2cc(SCC(F)(F)F)c(Cl)cc2Cl)c(=O)n1CC(F)(F)F [compound 12] | 3.93 |  | 90% | 90% | 
16 | Cn1c(=O)cnn(-c2cc(SCC(F)(F)F)c(Cl)cc2Cl)c1=O [compound 14] | 3.31 |  | 90% | 100% | 
17 | Cc1cc(F)c(-n2ncc(=O)n(CC#N)c2=O)cc1SCC(F)(F)F [compound 39] | 2.96 | 2.9 | 90% | 100% | 
18 | C#CCn1c(=O)ccn(-c2cc([S+]([O-])CC(F)(F)F)c(C)cc2F)c1=O (stereo not shown) [compound 67] | 1.86 | 1.92 | 100% |  | efficacy (spider mites killed) ([3]; application rate 20 g/ha): 90%
19 | COCn1c(=O)ccn(-c2cc([S+]([O-])CC(F)(F)F)c(C)cc2F)c1=O (stereo not shown) [compound 68] | 1.67 | 1.74 | 100% | 90% | 
20 | Cc1cc(F)c(-n2ccc(=O)n(CC(C)C)c2=O)cc1[S+]([O-])CC(F)(F)F (stereo not shown) [compound 69] | 2.48 | 2.55 | 100% |  | 
21 | Cc1cc(F)c(-n2ccc(=O)n(CC(F)F)c2=O)cc1[S+]([O-])CC(F)(F)F (stereo not shown) [compound 70] | 2.06 | 2.11 | 100% | 90% | 
22 | Cc1cc(F)c(-n2ccc(=O)n(CC(F)(F)F)c2=O)cc1SCC(F)(F)F [compound 72] | 3.16 | 3.29 | 100% | 90% | 
23 | Cc1cc(F)c(-n2ccc(=O)n(CC(C)C)c2=O)cc1SCC(F)(F)F [compound 81] | 3.56 | 3.62 |  | 90% | 
24 | Cc1ccc(-n2ccc(=O)[nH]c2=O)cc1SCC(F)(F)F [compound 88] | 1.99 | 2.05 |  | 90% | 
25 | Cc1cc(C)c(-n2ccc(=O)[nH]c2=O)cc1SCC(F)(F)F [compound 89] | 2.18 | 2.25 |  | 100% | 
26 | Cc1ccc(-n2ccc(=O)[nH]c2=O)cc1[S+]([O-])CC(F)(F)F (stereo not shown) [compound 91] | 1.20 | 1.19 |  | 100% | 
27 | Cc1cc(C)c([S+]([O-])CC(F)(F)F)cc1-n1ccc(=O)n(C)c1=O (stereo not shown) [compound 93] | 1.68 | 1.7 |  | 100% | 
28 | Cc1cc(C)c(-n2ccc(=O)n(CC(F)(F)F)c2=O)cc1SCC(F)(F)F [compound 94] | 3.39 | 3.49 |  | 100% | 
29 | CCn1c(=O)ccn(-c2cc(SCC(F)(F)F)c(C)cc2C)c1=O [compound 96] | 2.98 | 3.07 |  | 100% | 
30 | Cc1cc(C)c([S+]([O-])CC(F)(F)F)cc1-n1ccc(=O)[nH]c1=O (stereo not shown) [compound 99] | 1.35 | 1.38 |  | 100% | 
